Source: article PMC12291119, “In Vitro Selection of Cyclized, Glycosylated Peptide Antigens That Tightly Bind HIV High Mannose Patch Antibodies” (ACS Central Science, 2025)
Ends that are not written are not given here.

Assays:
[1] = target: PGT122; experiment: Bead-based radiometric binding assay of ribosomally synthesized free peptides; conditions: free 3H-histidine-labelled peptide, no click glycosylation; 0, 100, 200, 400 nM antibody, 1 h room temperature, Protein G beads, LSC; Michaelis-Menten fit; preliminary
Method: The protocol used for cyclization while captured on resin was as follows: To 20 µL of crude translated peptide was added 80 µL of bind buffer with BME (50 mM Tris-HCl, pH 7.8, 300 mM NaCl, 5 mM BME) and 20 µL of HisPur™ Ni-NTA Resin (ThermoScientific). The mixture was tumbled at room temperature for 1 hour. Next, the mixture was spun down at 17,000 ×g, and the supernatant was carefully removed from the loosely-pelleted agarose.
The resin was washed three times with 160 µL of cyclization wash buffer with TCEP (50 mM Tris-HCl, pH 8.0, […]). To the resin was then added 160 µL of free peptide cyclization buffer (50 mM Tris-HCl, pH 8.0, 300 mM NaCl, 0.5 mM TCEP, 3.3 mM m-dibromoxylene, 33% (v/v) MeCN), and the mixture was covered in foil and tumbled at room temperature for 30 minutes. The supernatant was removed and 160 µL of cyclization wash buffer with BME (50 mM Tris-HCl, pH 8.0, 300 mM NaCl, 10 mM BME, 33% (v/v) MeCN) was added. The suspension was tumbled at room temperature for 10 minutes without aluminum foil to quench the reaction. The reaction was spun down, and the supernatant was removed. Next, the resin was resuspended in wash buffer (50 mM Tris-HCl, pH 7.8, 5 mM BME) and transferred to a 0.22 µm Ultrafree-MC Centrifugal Filter (MilliporeSigma). The tube was rinsed with 80 µL of wash buffer, and the rinse was added to the filter. The filter was then spun down at 10,000 ×g for 1 minute. The resin in the filter was washed twice with 160 µL of wash buffer. To elute the peptide, 20 µL 0.2% (v/v) TFA was added to the resin and allowed to sit at room temperature for 2 minutes before spinning down and collecting in a new tube. The elution step was carried out once more, with the eluent collected separately.
4. Radioactive Peptides for Bead-based Radiometric Binding Assay
For binding analysis, translation (50 µL) was carried out in the presence of PDF/MAP and 3H-histidine for radiolabeling. The crude peptides were purified by Ni-NTA agarose and, if the sequence contained two cysteine residues, was cyclized while captured on the Ni-NTA resin. The peptide eluents were combined and dialyzed as follows: To the combined eluents was added a solution of Triton X-100 in water for a final concentration of 0.1%.
Next, the peptides were dialyzed against 0.1% (v/v) Triton X-100 using a Slide-A-Lyzer™ MINI device (0.1 mL capacity, 3.5 kDa MWCO) (Thermo Scientific) at room temperature overnight. The dialyzed peptides were retrieved from the devices. The peptide solutions were concentrated to dryness by speedvac for the click reaction. […]
room temperature. While tumbling, Dynabeads™ Protein G (Invitrogen) were equilibrated with 1X selection buffer as follows: Steps were carried out using a multi-channel pipettor where possible. For each sequence, 8 µL of Protein G bead suspension was transferred to a 0.2 mL PCR tube in a strip. Next, 64 µL (8 bead vol.) of 1X selection buffer was added to the beads. The mixture was resuspended by gently vortexing, spun down briefly, and placed on a magnet for 1 minute. The supernatant was removed, and this wash was repeated two more times. The final supernatant was removed just prior to addition of the incubated peptide/antibody mixture. The mixture was allowed to tumble at room temperature for 30 minutes to capture antibodies and bound peptides. Next, the suspension was briefly spun down, placed on a magnet, and the supernatant was transferred to an individual 0.2 mL PCR tube. To wash the beads, 16 µL of 1X selection buffer was added, gently vortexed, spun down briefly, placed on a magnet for 1 minute, and the wash was transferred to the same PCR tube as the supernatant. This wash step was repeated twice more for a total of three washes, saved altogether with the supernatant as the “unbound” fraction. The beads were then resuspended in 50 µL of denaturing elute buffer. The suspension was heated at 95 °C for 5 minutes to denature […]

[2] = target: PGT122; experiment: Bead-based radiometric binding assay of clones prepared as cDNA/mRNA-glycopeptide fusions; conditions: 2K CPM per sample, Protein G beads, LSC, preliminary
Method: antibodies, spun down briefly, placed on a magnet for 1 minute, and the eluent was transferred to an individual 0.2 mL PCR tube. The beads were washed with 50 µL of denaturing elute buffer, and the wash was placed into the same tube as the eluent. The combined eluent and wash represented the “bound” fraction. The beads were resuspended in 50 µL of denaturing elute buffer, vortexed, and directly placed into a vial with liquid scintillation cocktail for radioactivity measurements, though it was not included in calculations of fraction bound. Each of the tubes with the “unbound” and “bound” fractions were placed into vials for LSC. The tube in which the antibody and peptides were incubated were also measured by LSC, but not included in calculations of fraction bound. Fraction bound values for each antibody concentration after background adjustment were input into KaleidaGraph 4.1.1 for curve fitting to a […]
5. Clones Prepared as cDNA/mRNA-glycopeptide Fusions
Selected clones were also prepared as cDNA/mRNA-glycopeptide fusions for binding analysis. RNA (450-1000 pmol) was photo-crosslinked as described in Section IV.A.2 but with 10 µM transcribed RNA and 15 µM XL-PSO in 1X XL Buffer for annealing, and dilution to 100 µL for irradiation at 365 nm. XL-RNA was then purified by ethanol precipitation and 5% denaturing urea-PAGE with electroelution. Purified XL-RNA was translated in the presence of PDF/MAP and 3H-histidine for radiolabeling. Crude translation reactions were captured on Pierce™ Streptavidin UltraLink™ Resin (Thermo Scientific), subjected to reverse transcription, and cyclized as described for selection. Fusions were then washed and photo-eluted with 1X selection buffer instead of 0.2% (v/v) […]. […]
reverse transcription in preparation for photo-elution. Note: 2U3 was also cyclized despite having only one cysteine residue to better mimic its structure during selection. Fusions were then passed through 0.22 µm Ultrafree-MC Centrifugal Filters (MilliporeSigma), buffer exchanged by ethanol precipitation, and subjected to click reaction (5 µL) with Man9(GlcNAc)2-azide as described in Section II.A.8. Binding assays were performed analogously as with […]
as free peptides and cDNA/mRNA-glycopeptide fusions.
Name Click KD Ratio (No click : Click) KD Ratio (No click : Click) […]
a 2U3 was cyclized as a fusion but not as a free peptide.

[3] = test system: HIV pseudovirus panel; conditions: ref number not given, cited from earlier work
Text: We have sought to mimic HMP epitopes without using either the entire Env protein, which contains a plethora of “distracting” epitopes that easily elicit off-target antibodies; − or short glycopeptides directly derived from the Env sequence, which may not sufficiently recapitulate the HMP structure without the conformational support of the remaining Env protein. Aiming to design glycostructures that better mimic the glycan presentation in the HMP, we have pioneered various techniques for the directed evolution of DNA, , RNA, F-RNA, or peptide-supported , glycan clusters.

[4] = cDNA/mRNA-glycopeptide fusion, click-glycosylated with Man9(GlcNAc)2-azide
[5] = cDNA/mRNA-peptide fusion, no click glycosylation
[6] = diverse/representative HIV pseudovirus panel

Substance	Kd [1]	Kd [2, 4]	Kd [2, 5]	breadth (fraction of HIV pseudovirus panel neutralized) [3, 6]	median IC50 [3, 6]	potency (EC50) ([3]; neutralization potency)
AFIAYYFDLSQPNLHSPNFTLKIGDIREAQCMLTCDSAKPNPRVVPILALLI (also: sidechain bridge or staple (positions not given here)) [2B3c, ribosomally synthesized PGT122 selection clone, cyclized]	4490 nM	140 nM	99.7 nM	–	–	–
AHSLFNFQVRLKQLPLDANGAVIGDIRIAECMNHTYTPLTFYIYSNHPTDIQ [GB1, ribosomally synthesized gl-PGT121 selection clone]	181 nM	–	–	–	–	–
AKTKTYLIRFHLDILPNDNLRSQKIRLIFGDKATVKGMITFLNDSELEWNFE [2U1, ribosomally synthesized PGT122 selection clone, tested with and without click glycosylation]	–	29.8 nM	82.5 nM	–	–	–
AKTRTPMNLSGKSNIRYFFTIDNSTMFEDLFMRFPRSKEYHIELEEFKDLIR [2U7]	1430 nM	139 nM	300 nM	–	–	–
ALNLYQIVEFTIDESNDIVQLQIGDIRTADCMSLNKECYNIIFFSWDNHGKN (also: sidechain bridge or staple (positions not given here)) [2B4c, ribosomally synthesized PGT122 selection clone, cyclized]	158 nM	155 nM	44.4 nM	–	–	–
ANNFICIRNIGDIRSARCMNVSAGRYAPYREFYFDITYDDFNKNVNIVITPV (also: sidechain bridge or staple (positions not given here)) [2B8c, ribosomally synthesized PGT122 selection clone, cyclized]	–	108 nM	176 nM	–	–	–
ANPRIIFFELSIRNNSLKLLRWHDTQGIFHDSMTELSQHAELPRFKFHSNAA [GU1, ribosomally synthesized gl-PGT121 selection clone]	156 nM	–	–	–	–	–
ANPSFSVQFIVDLIGPNVMRITLSNKPFATICPITEGESHISKRFNFQLTIS [2U3c, ribosomally synthesized PGT122 selection clone; cyclized as a fusion but not as a free peptide]	–	449 nM	281 nM	–	–	–
AQYIDWEIDINQVPNQMNLSKPTWKSDITINKVKWSFYININQASNENTDNI [2U6, ribosomally synthesized PGT122 selection clone]	166 nM	173 nM	96.7 nM	–	–	–
ATLNIFSNFSIEPDSFYEIVLPIGDIRIAPCMSSFNRNGSTNNCYHFEINLF (also: sidechain bridge or staple (positions not given here)) [2B5c, ribosomally synthesized PGT122 selection clone, cyclized]	212 nM	85.9 nM	314 nM	–	–	–
AYPVYLRLPIGDIRIASCMFGDEPNTWTRDELNDYFYTESYNPQPITITFKC (also: sidechain bridge or staple (positions not given here)) [2B2c, ribosomally synthesized PGT122 selection clone, cyclized]	1650 nM	116 nM	89 nM	–	–	–
AYSIHFVCDINETPTNTSKAIFSIKCDITTPESTTRQLMITKHYHFPPTGTR (also: sidechain bridge or staple (positions not given here)) [2U8c, ribosomally synthesized PGT122 selection clone, cyclized]	–	48.4 nM	173 nM	–	–	–
AYVISFSIDQPDLDRPNIIRISIGDIRSAKCMKLDTINFAYRDDSSEVCYEK (also: sidechain bridge or staple (positions not given here)) [2B7c, ribosomally synthesized PGT122 selection clone, cyclized]	29.8 nM	143 nM	66.2 nM	–	–	–
PGT128: broad and very potent HIV bnAb binding the High Mannose Patch	–	–	–	72%	0.02 µg/mL	0.02 µg/mL
